Assay results from patent US7053070B2, “Pyrido[2,3-d]pyrimidine-2,7-diamine kinase inhibitors” (Warner-Lambert Company, priority 2000, dated 2006).

Columns and labels:
cdk1/cyclinB = cdk1/cyclinB (Homo sapiens, UniProt P06493); assay: Cyclin dependent kinase 1 assay (cdk1/cyclinB), 32P incorporation, filter plate; format: biochemical; settings: retinoblastoma substrate, 12 mM ATP, 25° C., 15 minutes; read-out: Inhibition of Cdks: IC50 Cdk1/B
In short: (§1)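 Radiometric filter assay: 20 ng cdk1/B, cdk2/A or cdk2/E with 1 μg retinoblastoma substrate in 20 mM Tris pH 7.4, 50 mM NaCl, 1 mM DTT, 10 mM MgCl2, […] plus [32P]ATP. Started with ATP, 15 min at 25 °C, stopped and precipitated with TCA; 32P incorporation counted for IC50.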

cdk2/cyclinA = cdk2/cyclinA (Homo sapiens, UniProt P24941); assay: Cyclin dependent kinase 2 assay (cdk2/cyclinA), 32P incorporation, filter plate; format: biochemical; settings: retinoblastoma substrate, 12 mM ATP, 25° C., 15 minutes; read-out: Inhibition of Cdks: IC50 Cdk2/A
In short: as §1

cdk2/cyclinE = cdk2/cyclinE (Homo sapiens, UniProt P24941); assay: Cyclin dependent kinase 2 assay (cdk2/cyclinE), 32P incorporation, filter plate; format: biochemical; settings: retinoblastoma substrate, 12 mM ATP, 25° C., 15 minutes; read-out: Inhibition of Cdks: IC50 Cdk2/E
In short: as §1

cdk4/cyclinD = cdk4/cyclinD (Homo sapiens, UniProt P11802); assay: Cyclin Dependent Kinase 4 (cdk-4) Assay, 32P incorporation, filter plate; format: biochemical; settings: retinoblastoma substrate, 25 μM ATP, 25° C., 15 minutes; read-out: Inhibition of Cdks: IC50 Cdk4D
In short: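 Filter-plate radiometric assay for IC50s: 20 ng cdk4 with 1 μg retinoblastoma substrate in 20 mM TRIS pH 7.4, 50 mM NaCl, 1 mM DTT, 10 mM MgCl2. Started with 25 μM ATP plus [32P]ATP and run 15 min at 25° C, then stopped with TCA. Precipitated substrate was washed and 32P incorporation counted.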

[1] = target: T1, FGF-1 (flg) receptor tyrosine kinase (FGFr) (Homo sapiens, UniProt P11362); assay: FGF Receptor Tyrosine Kinase Assay; format: biochemical; settings: glutamate-tyrosine co-polymer substrate; for inhibition at 50 µM: at 50 μM compound, read-out: Inhibition of Tyrosine Kinases: % Inhibition at 50 μM FGFr; for IC50: read-out: Inhibition of Tyrosine Kinases: IC50 in parenthesis FGFr
T1 construct: amplify a fragment of DNA that codes for the intracellular tyrosine kinase domain; made in house; host or cells: SF9 insect cells (baculovirus); crude cell lysate used
Source text: (§2) PDGF and FGF Receptor Tyrosine Kinase Assays
(§3) Full-length cDNAs for the mouse PDGF-β and human FGF-1 (flg) receptor tyrosine kinases are obtained from J. Escobedo and prepared as described in J. Biol. Chem. 1991; 262:1482-1487. PCR primers are designed to amplify a fragment of DNA that codes for the intracellular tyrosine kinase domain. The fragment is inserted into a baculovirus vector, cotransfected with AcMNPV DNA, and the recombinant virus isolated. SF9 insect cells are infected with the virus to overexpress the protein, and the cell lysate is used for the assay. Assays are performed in 96-well plates (100 μL/incubation/well), and conditions are optimized to measure the incorporation of ^32P from γ^32P-ATP into a glutamate-tyrosine co-polymer substrate. Briefly, to each well is added 82.5 μL of incubation buffer containing 25 mM Hepes (pH 7.0), 150 mM NaCl, 0.1% Triton X-100, 0.2 mM PMSF, 0.2 mM Na3VO4, 10 mM MnCl2, and 750 μg/mL of Poly (4:1) glutamate-tyrosine followed by 2.5 μL of inhibitor and 5 μL of enzyme lysate (7.5 μg/μL FGF-TK or 6.0 μg/μL PDGF-TK) to initiate the reaction. Following a 10-minute incubation at 25° C. […] of γ^32P-ATP (0.4 μCi plus 50 μM ATP) is added to each well, and samples are incubated for an additional 10 minutes at 25° C. The reaction is terminated by the addition of 100 μL of 30% trichloroacetic acid (TCA) containing 20 mM sodium pyrophosphate and precipitation of material onto glass fiber mats (Wallac). Filters are washed 3 times with 15% TCA containing 100 mM sodium pyrophosphate, and the radioactivity retained on the filters counted in a Wallac 1250 Betaplate reader. Nonspecific activity is defined as radioactivity retained on the filters following incubation of samples with buffer alone (no enzyme). Specific enzymatic activity (enzyme plus buffer) is defined as total activity minus nonspecific activity.

[2] = target: T2, PDGF-β receptor tyrosine kinase (PDGFr) (Mus musculus, UniProt P05622); assay: PDGF Receptor Tyrosine Kinase Assay; format: biochemical; settings: glutamate-tyrosine co-polymer substrate; for IC50: read-out: Inhibition of Tyrosine Kinases: IC50 in parenthesis PDGFr; for inhibition at 50 µM: at 50 μM compound, read-out: Inhibition of Tyrosine Kinases: % Inhibition at 50 μM PDGFr
T2 construct: amplify a fragment of DNA that codes for the intracellular tyrosine kinase domain; made in house; host or cells: SF9 insect cells (baculovirus); crude cell lysate used
Source text: as §2, §3

cdk1/cyclinB, sequence (P06493 whole entry, species assumed): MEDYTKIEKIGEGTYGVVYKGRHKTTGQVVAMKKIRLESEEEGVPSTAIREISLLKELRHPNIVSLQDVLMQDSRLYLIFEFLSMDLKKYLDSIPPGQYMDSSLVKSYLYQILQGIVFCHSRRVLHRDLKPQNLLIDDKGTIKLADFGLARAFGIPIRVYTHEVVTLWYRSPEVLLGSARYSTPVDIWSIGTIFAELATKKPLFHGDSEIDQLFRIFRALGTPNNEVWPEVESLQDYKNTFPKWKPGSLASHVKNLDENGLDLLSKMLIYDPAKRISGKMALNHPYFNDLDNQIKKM
cdk1/cyclinB, sequence (P14635 whole entry partner, species assumed): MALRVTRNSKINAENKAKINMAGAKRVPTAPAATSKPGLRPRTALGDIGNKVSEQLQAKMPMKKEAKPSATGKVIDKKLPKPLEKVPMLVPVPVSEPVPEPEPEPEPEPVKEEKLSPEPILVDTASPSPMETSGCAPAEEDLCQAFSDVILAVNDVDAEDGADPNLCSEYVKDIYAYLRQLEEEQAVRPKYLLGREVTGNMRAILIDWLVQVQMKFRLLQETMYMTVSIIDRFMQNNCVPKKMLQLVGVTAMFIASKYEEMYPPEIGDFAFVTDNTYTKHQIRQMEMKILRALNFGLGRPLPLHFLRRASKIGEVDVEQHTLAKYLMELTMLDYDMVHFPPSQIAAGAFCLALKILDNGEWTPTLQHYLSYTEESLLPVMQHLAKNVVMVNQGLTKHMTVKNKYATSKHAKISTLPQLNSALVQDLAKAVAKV
cdk4/cyclinD, sequence (P11802 whole entry, species assumed): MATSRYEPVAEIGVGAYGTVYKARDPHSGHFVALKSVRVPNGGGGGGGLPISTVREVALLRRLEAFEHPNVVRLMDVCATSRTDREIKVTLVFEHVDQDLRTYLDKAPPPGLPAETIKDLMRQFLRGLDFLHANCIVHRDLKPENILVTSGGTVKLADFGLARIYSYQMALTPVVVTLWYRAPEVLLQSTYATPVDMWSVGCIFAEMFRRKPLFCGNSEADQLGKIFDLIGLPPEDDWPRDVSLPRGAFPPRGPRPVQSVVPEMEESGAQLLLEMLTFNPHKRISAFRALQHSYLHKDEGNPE
cdk4/cyclinD, sequence (P24385 whole entry partner, species assumed): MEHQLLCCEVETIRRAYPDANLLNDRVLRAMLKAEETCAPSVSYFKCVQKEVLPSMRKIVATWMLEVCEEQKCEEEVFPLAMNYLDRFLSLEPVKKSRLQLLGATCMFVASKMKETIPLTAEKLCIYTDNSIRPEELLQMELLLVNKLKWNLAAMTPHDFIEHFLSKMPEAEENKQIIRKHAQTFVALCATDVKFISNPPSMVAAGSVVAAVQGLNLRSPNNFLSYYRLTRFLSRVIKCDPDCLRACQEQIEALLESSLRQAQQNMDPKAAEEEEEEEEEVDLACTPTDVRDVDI
T2 sequence (P05622 599-961 limits assumed): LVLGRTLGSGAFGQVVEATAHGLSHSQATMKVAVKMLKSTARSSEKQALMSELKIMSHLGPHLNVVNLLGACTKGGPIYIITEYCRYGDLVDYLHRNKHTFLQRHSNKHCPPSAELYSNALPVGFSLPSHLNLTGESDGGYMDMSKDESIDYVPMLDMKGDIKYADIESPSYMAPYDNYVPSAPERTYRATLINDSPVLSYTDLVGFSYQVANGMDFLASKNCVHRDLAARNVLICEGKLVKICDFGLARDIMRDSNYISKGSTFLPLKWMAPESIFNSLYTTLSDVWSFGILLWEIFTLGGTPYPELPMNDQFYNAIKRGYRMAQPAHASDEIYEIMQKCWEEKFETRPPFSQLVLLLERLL
T1 sequence (P11362 478-767 limits assumed): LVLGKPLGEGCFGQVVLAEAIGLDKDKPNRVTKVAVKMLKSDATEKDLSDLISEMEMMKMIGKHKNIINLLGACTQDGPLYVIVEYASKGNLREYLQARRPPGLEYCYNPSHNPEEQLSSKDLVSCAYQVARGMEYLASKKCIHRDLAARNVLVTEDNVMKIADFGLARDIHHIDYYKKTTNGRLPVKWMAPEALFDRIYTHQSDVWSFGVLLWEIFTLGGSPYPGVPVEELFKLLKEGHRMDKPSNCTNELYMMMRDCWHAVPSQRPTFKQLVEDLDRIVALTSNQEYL

Structure (SMILES)	IC50 (cdk1/cyclinB) [nM]	IC50 (cdk2/cyclinA) [nM]	IC50 (cdk2/cyclinE) [nM]	IC50 (cdk4/cyclinD) [nM]	inhibition at 50 µM [1] [%]	melting point	IC50 [2] [nM]	IC50 [1] [nM]	inhibition at 50 µM [2] [%]
Cc1cc(Nc2ncc3ccc(NC(=O)Nc4ccc(Cl)cc4)nc3n2)ccc1F [Compound 47, 1-(4-Chloro-phenyl)-3-[2-(4-fluoro-3-methyl-phenylamino)-pyrido[2,3-d]pyrimidin-7-yl]-urea]	> 5000	> 5000	> 5000	> 5000	10.5	> 250 °C			
Cc1cc2cnc(Nc3ccc(N4C[C@@H](C)N[C@@H](C)C4)cc3)nc2nc1NC(=O)NC(C)(C)C [Compound 117, 1-tert-Butyl-3-{2-[4(cis-3,5-dimethyl-piperazin-1-yl)-phenylamino]-6-methyl-pyrido[2,3-d]pyrimidin-7-yl}-urea]	> 5000	> 5000	4000	76			81	61	
O=C(Nc1nc2nc(Nc3ccc(N4CCNCC4)cc3)ncc2cc1Br)NC1CCCCC1 [Compound 55, 1-[6-Bromo-2-(4-piperazin-1-yl-phenylamino)-pyrido[2,3-d]pyrimidin-7-yl]-3-cyclohexyl-urea]	> 5000	> 5000	> 5000	300		195 °C (dec.)	33	151	
CN(C(=O)NC1CCCCC1)c1ccc2cnc(Nc3ccc(N4CCNCC4)cc3)nc2n1 [Compound 70, 3-Cyclohexyl-1-methyl-1-[2-(4-piperazin-1-yl-phenylamino)-pyrido[2,3-d]pyrimidin-7-yl]-urea]	1450	697	530	17		169 to 175 °C	536	1150	
CCNC(=O)Nc1cc(C)c2cnc(Nc3ccc(N4CCNCC4)cc3)nc2n1 [Compound 28, 1-Ethyl-3-[5-methyl-2-(4-piperazin-1-yl-phenylamino)-pyrido[2,3-d]pyrimidin-7-yl]-urea]	> 5000	> 5000	> 5000	> 5000		220 to 222 °C			
O=C(Nc1ccc2cnc(Nc3ccc(N4CCNCC4)cc3)nc2n1)N1CCOCC1 [Compound 85, Morpholine-4-carboxylic acid [2-(4-piperazin-1-yl-phenylamino)-pyrido[2,3-d]pyrimidin-7-yl]-amide]	> 5000	> 5000	> 5000	> 5000		190 °C (dec.)			
O=C(NCCCO)Nc1ccc2cnc(Nc3ccc(N4CCNCC4)cc3)nc2n1 [Compound 81, 1-(3-Hydroxy-propyl)-3-[2-(4-piperazin-1-yl-phenylamino)-pyrido[2,3-d]pyrimidin-7-yl]-urea]	2610	1560	3250	500		183 °C (dec.)			
O=C(NCCCN1CCOCC1)Nc1ccc2cnc(Nc3ccc(F)cc3)nc2n1 [Compound 96, 1-[2-(4-Fluoro-phenylamino)-pyrido[2,3-d]pyrimidin-7-yl]-3-(3-morpholin-4-yl-propyl)-urea]	6360	1110	1550	> 5000		253 to 256 °C			
O=C(Nc1ccc2cnc(Nc3ccc(N4CCNCC4)cc3)nc2n1)N(CCO)CCO [Compound 89, 1,1-Bis-(2-hydroxy-ethyl)-3-[2-(4-piperazin-1-yl-phenylamino)-pyrido[2,3-d]pyrimidin-7-yl]-urea]	> 5000	> 5000	> 5000	> 5000		185 °C (dec.)			

Compounds with a lower IC50 (cdk1/cyclinB), results first:

IC50 (cdk1/cyclinB) [nM]	IC50 (cdk2/cyclinA) [nM]	IC50 (cdk2/cyclinE) [nM]	IC50 (cdk4/cyclinD) [nM]	inhibition at 50 µM [1] [%]	melting point	IC50 [2] [nM]	IC50 [1] [nM]	inhibition at 50 µM [2] [%]	Structure (SMILES)
159	92	125	11			131	284		O=C(Nc1nc2nc(Nc3ccc(N4CCNCC4)cc3)ncc2cc1F)NC1CCCCC1 [Compound 11, 1-Cyclohexyl-3-[6-fluoro-2-(4-piperazin-1-yl-phenylamino)-pyrido[2,3-d]pyrimidin-7-yl]-urea]
461	92	230	460	18.6	241 °C (dec.)				CC(C)(C)OC(=O)N1CCN(c2ccc(Nc3ncc4ccc(NC(=O)NC5CCCCC5)nc4n3)cc2)CC1 [Compound 80]
75		300	> 5000	19.5	230 °C (dec.)			17.5	Cc1cc(Nc2ncc3ccc(NC(=O)NC(C)(C)C)nc3n2)ccc1F [Compound 46, 1-tert-Butyl-3-[2-(4-fluoro-3-methyl-phenylamino)-pyrido[2,3-d]pyrimidin-7-yl]-urea]
219	60	130	6	93.7		593		94.4	CC(C)(C)NC(=O)Nc1ccc2cnc(Nc3ccc(N4CCNCC4)cc3)nc2n1 [Compound 1, 1-tert-Butyl-3-[2-(4-piperazin-1-yl-phenylamino)-pyrido[2,3-d]pyrimidin-7-yl]-urea]
552	54	110	45	67.4	227 °C (dec.)			21.9	CC(C)(C)NC(=O)Nc1ccc2cnc(Nc3ccccc3)nc2n1 [Compound 45, 1-tert-Butyl-3-(2-phenylamino-pyrido[2,3-d]pyrimidin-7-yl)-urea]
399	305	315	55		185 °C (dec.)				CC(C)C[C@@H](CO)NC(=O)Nc1ccc2cnc(Nc3ccc(N4CCNCC4)cc3)nc2n1 [Compound 83, 1-((S)-1-Hydroxymethyl-3-methyl-butyl)-3-[2-(4-piperazin-1-yl-phenylamino)-pyrido[2,3-d]pyrimidin-7-yl]-urea]
911	528	475	50		245 °C (dec.)				C[C@@H]1CN(c2ccc(Nc3ncc4ccc(NC(=O)NC(C)(C)C)nc4n3)cc2)C[C@H](C)N1 [Compound 49, 1-tert-Butyl-3-{2-[4-(cis-3,5-dimethyl-piperazin-1-yl)-phenylamino]-pyrido[2,3-d]pyrimidin-7-yl}-urea]
27	10	20	5	89.8					O=C(Nc1ccc2cnc(Nc3ccc(N4CCNCC4)cc3)nc2n1)NC1CCCCC1 [Compound 9, 1-Cyclohexyl-3-[2-(4-piperazin-1-yl-phenylamino)-pyrido[2,3-d]pyrimidin-7-yl]-urea]
